Data as given in patent publication US20250368627A1, “PYRAZOLESULFONAMIDES AS ANTITUMOR AGENTS” (Peloton Therapeutics, Inc., a fully owned subsidiary of …, priority 2019, published 2025).

Assays:
[1] = molecular target: T1, DDB1DB/DCAF15 and RBM39 R1R2 complex (Homo sapiens, UniProt Q14498+Q66K64); assay: DCAF15 RBM39 Complex Formation Assay (FRET); format: binding; details: FRET ratio Em 665/Em 615, incubated overnight at 4° C.
T1 construct: Amino acids 150 to 331 of RBM39 were cloned into pGEX4T3; GST (from vector pGEX4T3); TEV cleavage site (N); made in house; host or cells: DDB1DB/His-DCAF15: baculovirus/Sf9 co-expression; RBM39 R1R2: E. coli (pGEX4T3)
T1 sequence (Q66K64 whole entry, the tested form may be a part): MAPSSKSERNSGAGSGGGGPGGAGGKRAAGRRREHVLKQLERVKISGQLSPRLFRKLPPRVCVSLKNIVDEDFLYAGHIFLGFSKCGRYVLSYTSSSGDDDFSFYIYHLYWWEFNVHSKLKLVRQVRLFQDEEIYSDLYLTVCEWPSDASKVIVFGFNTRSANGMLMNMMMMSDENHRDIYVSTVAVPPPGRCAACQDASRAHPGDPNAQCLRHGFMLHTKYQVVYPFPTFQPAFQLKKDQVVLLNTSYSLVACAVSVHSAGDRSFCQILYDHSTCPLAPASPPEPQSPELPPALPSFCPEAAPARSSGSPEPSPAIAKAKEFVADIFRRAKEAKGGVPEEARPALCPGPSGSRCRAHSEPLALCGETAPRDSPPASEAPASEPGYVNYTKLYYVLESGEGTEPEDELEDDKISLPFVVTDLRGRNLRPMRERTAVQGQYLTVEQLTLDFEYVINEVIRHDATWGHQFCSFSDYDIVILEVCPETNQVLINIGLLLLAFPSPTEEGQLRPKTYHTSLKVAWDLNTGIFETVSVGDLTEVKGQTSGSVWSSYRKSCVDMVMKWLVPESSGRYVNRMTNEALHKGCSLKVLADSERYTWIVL
T1 sequence (Q14498 150-331): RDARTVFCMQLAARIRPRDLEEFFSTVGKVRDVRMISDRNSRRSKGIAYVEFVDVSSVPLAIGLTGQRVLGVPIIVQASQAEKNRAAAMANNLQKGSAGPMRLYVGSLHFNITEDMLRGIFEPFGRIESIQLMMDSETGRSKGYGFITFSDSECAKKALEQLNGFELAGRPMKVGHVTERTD
T1 sequence (Q16531 with tags, fused parts or gaps DEL396-708 partner): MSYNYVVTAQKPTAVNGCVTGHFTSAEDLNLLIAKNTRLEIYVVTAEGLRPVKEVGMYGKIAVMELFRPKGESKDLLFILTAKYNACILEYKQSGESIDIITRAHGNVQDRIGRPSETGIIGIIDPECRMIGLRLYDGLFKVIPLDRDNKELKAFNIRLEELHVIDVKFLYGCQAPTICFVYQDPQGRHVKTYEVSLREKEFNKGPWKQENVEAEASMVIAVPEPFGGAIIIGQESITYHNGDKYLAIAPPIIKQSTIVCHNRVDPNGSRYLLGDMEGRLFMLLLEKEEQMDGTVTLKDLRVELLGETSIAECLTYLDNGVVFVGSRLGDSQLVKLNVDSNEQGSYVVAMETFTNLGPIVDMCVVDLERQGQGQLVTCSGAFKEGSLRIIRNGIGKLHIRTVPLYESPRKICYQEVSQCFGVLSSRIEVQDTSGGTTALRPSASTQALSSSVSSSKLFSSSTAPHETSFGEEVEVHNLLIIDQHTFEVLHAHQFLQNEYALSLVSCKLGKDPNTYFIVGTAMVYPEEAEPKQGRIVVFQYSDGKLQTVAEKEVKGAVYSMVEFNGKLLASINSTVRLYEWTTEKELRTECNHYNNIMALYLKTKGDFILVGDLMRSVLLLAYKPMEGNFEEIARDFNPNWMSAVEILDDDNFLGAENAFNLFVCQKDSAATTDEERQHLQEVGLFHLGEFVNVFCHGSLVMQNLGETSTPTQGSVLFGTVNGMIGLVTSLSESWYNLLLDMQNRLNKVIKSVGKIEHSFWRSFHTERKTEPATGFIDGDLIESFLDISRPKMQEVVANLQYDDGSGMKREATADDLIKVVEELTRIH
Procedure, shortened: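 Ternary complex formation read by TR-FRET (Em 665/615, excitation 340 nm) after overnight incubation at 4° C of 20 nM baculovirus DDB1DB/His-DCAF15 and 50 nM E. coli RBM39 RRM1-RRM2 FLAG fragment with 14-point, 3-fold compound dilutions from 1 μM; EC50 from 4-parameter fit.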

[2] = tested on: HCT116 human colorectal carcinoma cells; assay: CellTiter-Glo Luminescent Cell Viability Assay; format: cell-based; details: HCT-116, 72 h, 3 days
Procedure, shortened: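 CellTiter-Glo luminescence gave viability after 3 days of compound exposure in HCT116 cells grown in DMEM/10% FBS. Final concentrations ran from 5 to 0.0002 […] in 1:3 steps, each in triplicate, with IC50 derived from the curves.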

Compound | IC50 [1] [nM] | EC50 [2] [nM]
CC(C)(O)Cn1ncc(S(=O)(=O)Nc2ccc(F)c3c(C#N)c[nH]c23)c1Cl [Compound 280, 5-chloro-N-(3-cyano-4-fluoro-1H-indol-7-yl)-1-(2-hydroxy-2-methyl-propyl)pyrazole-4-sulfonamide] | < 250 | > 1000
Cc1ccc(NS(=O)(=O)c2cnn([C@H](C)CF)c2)c2[nH]cc(C#N)c12 [Compound 281, N-(3-cyano-4-methyl-1H-indol-7-yl)-1-[(1R)-2-fluoro-1-methyl-ethyl]pyrazole-4-sulfonamide] | < 250 | < 250
Cn1ncc(S(=O)(=O)Nc2ccc(F)c3c(C#N)c[nH]c23)c1N [Compound 282, 5-amino-N-(3-cyano-4-fluoro-1H-indol-7-yl)-1-methyl-pyrazole-4-sulfonamide] | < 250 | 250 to 1000
Cc1ccc(NS(=O)(=O)c2cnn(CC(C)(C)O)c2N)c2[nH]cc(C#N)c12 [Compound 283, 5-amino-N-(3-cyano-4-methyl-1H-indol-7-yl)-1-(2-hydroxy-2-methyl-propyl)pyrazole-4-sulfonamide] | < 250 | 250 to 1000
Cc1ccc(NS(=O)(=O)c2cnn(C(F)F)c2N)c2[nH]cc(C#N)c12 [Compound 284, 5-amino-N-(3-cyano-4-methyl-1H-indol-7-yl)-1-(difluoromethyl)pyrazole-4-sulfonamide] | < 250 | < 250
N#Cc1c[nH]c2c(NS(=O)(=O)c3cnn(C(F)F)c3N)ccc(F)c12 [Compound 285, 5-amino-N-(3-cyano-4-fluoro-1H-indol-7-yl)-1-(difluoromethyl)pyrazole-4-sulfonamide] | < 250 | 250 to 1000
C[C@H]([C@@H](C)O)n1cc(S(=O)(=O)Nc2ccc(Cl)c3c(C#N)c[nH]c23)cn1 [Compound 286, N-(4-chloro-3-cyano-1H-indol-7-yl)-1-[(1R,2R)-2-hydroxy-1-methyl-propyl]pyrazole-4-sulfonamide] | < 250 | 250 to 1000
Cc1ccc(NS(=O)(=O)c2cnn([C@H](C)[C@@H](C)O)c2)c2[nH]cc(C#N)c12 [Compound 287, N-(3-cyano-4-methyl-1H-indol-7-yl)-1-[(1R,2R)-2-hydroxy-1-methyl-propyl]pyrazole-4-sulfonamide] | < 250 | < 250
C[C@H]([C@@H](C)O)n1cc(S(=O)(=O)Nc2ccc(F)c3c(C#N)c[nH]c23)cn1 [Compound 288, N-(3-cyano-4-fluoro-1H-indol-7-yl)-1-[(1R,2R)-2-hydroxy-1-methyl-propyl]pyrazole-4-sulfonamide] | < 250 | 250 to 1000
CC(C)(O)Cn1ncc(S(=O)(=O)Nc2ccc(Cl)c3c(C#N)c[nH]c23)c1N [Compound 289, 5-amino-N-(4-chloro-3-cyano-1H-indol-7-yl)-1-(2-hydroxy-2-methyl-propyl)pyrazole-4-sulfonamide] | < 250 | 250 to 1000
CCn1cc(S(=O)(=O)Nc2ccc(C)c3c(C#N)c[nH]c23)c(N)n1 [Compound 290, 3-amino-N-(3-cyano-4-methyl-1H-indol-7-yl)-1-ethyl-pyrazole-4-sulfonamide] | < 250 | < 250
CCn1cc(S(=O)(=O)Nc2ccc(F)c3c(C#N)c[nH]c23)c(N)n1 [Compound 291, 3-amino-N-(3-cyano-4-fluoro-1H-indol-7-yl)-1-ethyl-pyrazole-4-sulfonamide] | < 250 | 250 to 1000
N#Cc1c[nH]c2c(NS(=O)(=O)c3cnn(C(F)F)c3N)cccc12 [Compound 292] | < 250 | < 250
Cc1ccc(NS(=O)(=O)c2cnn(C(C)(F)CO)c2)c2[nH]cc(C#N)c12 (stereo not shown) [Compound 293, N-(3-cyano-4-methyl-1H-indol-7-yl)-1-(1-fluoro-2-hydroxy-1-methyl-ethyl)pyrazole-4-sulfonamide] | < 250 | 250 to 1000
CC(F)(CO)n1cc(S(=O)(=O)Nc2ccc(F)c3c(C#N)c[nH]c23)cn1 (stereo not shown) [Compound 294, N-(3-cyano-4-fluoro-1H-indol-7-yl)-1-(1-fluoro-2-hydroxy-1-methyl-ethyl)pyrazole-4-sulfonamide] | < 250 | > 1000
Cc1ccc(NS(=O)(=O)c2c[nH]nc2N)c2[nH]cc(C#N)c12 [Compound 295, 3-amino-N-(3-cyano-4-methyl-1H-indol-7-yl)-1H-pyrazole-4-sulfonamide] | < 250 | 250 to 1000

Compound | IC50 [1] [nM] | EC50 [2] [nM]
N#Cc1c[nH]c2c(NS(=O)(=O)c3c[nH]nc3N)ccc(Cl)c12 [Compound 296, 3-amino-N-(4-chloro-3-cyano-1H-indol-7-yl)-1H-pyrazole-4-sulfonamide] | < 250 | > 1000
Cc1ccc(NS(=O)(=O)c2cnn(C(F)CO)c2)c2[nH]cc(C#N)c12 (stereo not shown) [Compound 297, N-(3-cyano-4-methyl-1H-indol-7-yl)-1-(1-fluoro-2-hydroxy-ethyl)pyrazole-4-sulfonamide] | < 250 | < 250
N#Cc1c[nH]c2c(NS(=O)(=O)c3cnn(C(F)CO)c3)ccc(F)c12 (stereo not shown) [Compound 298, N-(3-cyano-4-fluoro-1H-indol-7-yl)-1-(1-fluoro-2-hydroxy-ethyl)pyrazole-4-sulfonamide] | < 250 | 250 to 1000
Cn1ncc(S(=O)(=O)Nc2cccc3c(C#N)c[nH]c23)c1N [Compound 299, 5-amino-N-(3-cyano-1H-indol-7-yl)-1-methyl-pyrazole-4-sulfonamide] | < 250 | 250 to 1000
N#Cc1c[nH]c2c(NS(=O)(=O)c3c[nH]nc3N)ccc(F)c12 [Compound 300, 3-amino-N-(3-cyano-4-fluoro-1H-indol-7-yl)-1H-pyrazole-4-sulfonamide] | < 250 | > 1000
Cc1ccc(NS(=O)(=O)c2cnn(C(F)(F)CO)c2)c2[nH]cc(C#N)c12 [Compound 301, N-(3-cyano-4-methyl-1H-indol-7-yl)-1-(1,1-difluoro-2-hydroxy-ethyl)pyrazole-4-sulfonamide] | < 250 | < 250
N#Cc1c[nH]c2c(NS(=O)(=O)c3cnn(CF)c3)ccc(F)c12 [Compound 302, N-(3-cyano-4-fluoro-1H-indol-7-yl)-1-(fluoromethyl)pyrazole-4-sulfonamide] | < 250 | 250 to 1000
Cc1ccc(NS(=O)(=O)c2cnn([C@H](C)CO)c2N)c2[nH]cc(C#N)c12 [Compound 303, 5-amino-N-(3-cyano-4-methyl-1H-indol-7-yl)-1-[(1R)-2-hydroxy-1-methyl-ethyl]pyrazole-4-sulfonamide] | < 250 | < 250
Cc1ccc(NS(=O)(=O)c2cnn(C)c2N)c2[nH]nc(C#N)c12 [Compound 304, 5-amino-N-(3-cyano-4-methyl-1H-indazol-7-yl)-1-methyl-pyrazol-4-sulfonamide] | < 250 | < 250
Cc1ccc(NS(=O)(=O)c2cnn(CF)c2)c2[nH]nc(C#N)c12 [Compound 305, N-(3-cyano-4-methyl-1H-indazol-7-yl)-1-(fluoromethyl)pyrazole-4-sulfonamide] | < 250 | 250 to 1000
C[C@H](CO)n1ncc(S(=O)(=O)Nc2ccc(Cl)c3c(C#N)c[nH]c23)c1N [Compound 306, 5-amino-N-(4-chloro-3-cyano-1H-indol-7-yl)-1-[(1R)-2-hydroxy-1-methyl-ethyl]pyrazole-4-sulfonamide] | < 250 | 250 to 1000
Cn1ncc(S(=O)(=O)Nc2ccc(Cl)c3c(C#N)n[nH]c23)c1N [Compound 307, 5-amino-N-(4-chloro-3-cyano-1H-indazol-7-yl)-1-methyl-pyrazole-4-sulfonamide] | < 250 | > 1000
Cc1ccc(NS(=O)(=O)c2cnn(CF)c2N)c2[nH]cc(C#N)c12 [Compound 308, 5-amino-N-(3-cyano-4-methyl-1H-indol-7-yl)-1-(fluoromethyl)pyrazole-4-sulfonamide] | < 250 | 250 to 1000
N#Cc1c[nH]c2c(NS(=O)(=O)c3cnn(CF)c3N)ccc(F)c12 [Compound 309, 5-amino-N-(3-cyano-4-fluoro-1H-indol-7-yl)-1-(fluoromethyl)pyrazole-4-sulfonamide] | < 250 | > 1000
N#Cc1c[nH]c2c(NS(=O)(=O)c3cnn([C@H](CO)CF)c3)ccc(Cl)c12 [Compound 311, N-(4-chloro-3-cyano-1H-indol-7-yl)-1-[(1R)-1-(fluoromethyl)-2-hydroxy-ethyl]pyrazole-4-sulfonamide] | < 250 | 250 to 1000
N#Cc1c[nH]c2c(NS(=O)(=O)c3cnn(CF)c3N)cccc12 [Compound 312, 5-amino-N-(3-cyano-1H-indol-7-yl)-1-(fluoromethyl)pyrazole-4-sulfonamide] | < 250 | > 1000
